Measured values reported in patent US20230270753A1, “COMBINATIONS OF GABAA ALPHA 5 AGONISTS AND SV2A INHIBITORS AND METHODS OF USING IN THE TREATMENT OF COGNITIVE IMPAIRMENT” (AGENEBIO, INC., priority 2020, published 2023).

Experiments:
[1] = system: aged-impaired (AI) Long-Evans rats; experiment: Morris Water Maze retention trial, levetiracetam (Example 1); type: in vivo, rat; conditions: levetiracetam 5 mg/kg/day i.p.; retention trial 24 hours after last training trial
Description: Six aged-impaired (AI) Long-Evans rats (as characterized above) were tested for their memory of new spatial information in the Morris water maze (MWM), under different drug/control treatment conditions (vehicle control and two different dosage levels of levetiracetam). A retention trial was performed after the training trials, as described below. The MWM apparatus consists of a large, circular pool (diameter 1.53 m; height, 0.58 m) filled with water (27° C.) that is made opaque through the addition of non-toxic pigment or some other substance. In the typical “hidden platform” version of the test, rats are trained to find a camouflaged white escape platform (height, 34.5 cm) that is positioned in the center of one quadrant of the maze about 1.0 cm below the water surface. This platform can be retracted to the bottom of the tank or raised to its normal position from outside the maze during behavioral testing. The location of the platform remains constant from trial to trial. […] The behavior of a rat in the pool is recorded by a camera that is suspended 2.5 m above the center of the pool. […] In the retention trial, the time the AI rats spent swimming in the target quadrant is measured and further plotted as a percentage of total swimming time. […]

[2] = system: aged-impaired (AI) rats; experiment: Radial Arm Maze task, one-hour delay, levetiracetam (Example 1); type: in vivo, rat
Description: The effects of levetiracetam on the spatial memory retention of aged-impaired (AI) rats were assessed in a Radial Arm Maze (RAM) behavioral task using vehicle control and five different dosage levels of levetiracetam (1.25 mg/kg/day, 2.5 mg/kg/day, 5 mg/kg/day, 10 mg/kg/day and 20 mg/kg/day). RAM behavioral tasks were performed on ten AI rats. All six treatment conditions were tested on all ten rats, as described above for the MWM test. The RAM apparatus used consisted of eight equidistantly spaced arms. An elevated maze arm (7 cm width×75 cm length) projected from each facet of an octagonal center platform (30 cm diameter, 51.5 cm height). […] A food well (4 cm diameter, 2 cm deep) was located at the distal end of each arm. Froot Loops' (Kellogg Company) were used as rewards. […] Numerous extra maze cues surrounding the apparatus were also provided. The AI rats were initially subjected to a pre-training test (Chappell et al. Neuropharmacology 37: 481-487, 1998). […] In the habituation phase, rats were familiarized to the maze for an 8-minute session on four consecutive days. […] To counterbalance any potential bias, drug effect was assessed using ascending-descending dose series, i.e., the dose series was given first in an ascending order and then repeated in a descending order. […]

[3] = system: aMCI subjects; experiment: Neuropsychological tests outside the scanner (Buschke, Benton, Verbal Paired Associates); type: in vivo, human; conditions: levetiracetam 125 mg twice a day for two weeks
[4] = following oral administration; cited from earlier work

Question: What does the source list for CC[C@@H](C(N)=O)N1CCCC1=O [levetiracetam, (2S)-2-(2-oxopyrrolidin-1-yl)butanamide]?
Answer: time spent in the target quadrant vs vehicle [1]: did not significantly improve; effective doses of levetiracetam in the animal model (radial arm maze errors) ([2]; AI rats, levetiracetam on its own): 5 to 10 mg/kg; reduction of the number of errors in the radial arm maze ([2]; levetiracetam on its own at 1.25 mg/kg or 2.5 mg/kg): not at 1.25 mg/kg or 2.5 mg/kg; performance in Buschke Selective Reminding Test-Delayed Recall, Benton Visual Retention Test, Verbal Paired Associates Test-Recognition and -Delayed Recall [3]: fail to rescue performance; time of peak plasma concentrations [4]: about 1 hour
